Patent US7728128B2, “Dibenzo[c,h][1,5]naphthyridines and their use as DNA probes” (Institut National de la Sante et de la Recherche Medicate …, priority 2006, dated 2010)

Legend:
plasmid DNA [1] = assay: absorption of free molecules before and after addition of plasmid DNA; format: physicochemical; design: Absorption maxima free dye / Absorption maxima DNA bound dye: unit not given here; conditions: for Absorption maxima DNA bound dye: after addition of plasmid DNA; for Absorption maxima free dye: free molecule, before addition of plasmid DNA
Experimental: (§1) Plasmid dsDNA was purified using a Qiagen Maxiprep kit and used in the supercoiled form for absorption and fluorescence studies. E. coli total RNA was bought from Ambion, dA/dT and dG/dC homopolymers were purchased from Amersham Biosciences. Calf thymus (CT) high-molecular weight DNA and Hoechst 33258 were obtained from Sigma-Aldrich. Ethidium bromide was purchased from Amresco.
(§2) Spectrometry and fluorimetry were performed using a SpectraMax384 (Molecular Devices) and a Luminescence Spectrometer LS50B (Perkin Elmer). Fluorescence emission of compound I in complex with DNA and RNA was measured in 50 mM Na phosphate buffer, pH 7.2 at room temperature. Before use, total E. coli RNA was heated to 100° C. for 1 min and immediately transferred on ice for 5 min before mixing with compound I solution. All measurements were carried out at room temperature (20-23° C.) in solutions protected from light and incubated for ˜10-15 min after dilution. The units of b/dye and bp/dye are defined as moles of RNA bases or DNA base pairs per mole of dye. Quantum yield was measured using quinine sulphate as standard as described in (Iupac Commission on Photochemistry, EPA Newsletter of November 1986, 21-29) using FLUOROMAX-3 Spex Spectrofluorometer (HORIBA) and UVIKON XL Spectrophotometer (SECOMAM).
(§3) Although compound I also stains mitotic chromosomes (FIG. 1D), theoretically it was possible that it binds specifically to DNA-associated proteins (for example histones) rather than to nucleic acids. To resolve this issue, the absorption and emission spectra of free compound I before and after addition of dsDNA were recorded. […] Molar extinction coefficient (EC) of free compound I at 391 nm was measured at 10,800 cm^−1 M^−1. In the presence of ds plasmid DNA the absorption peaks of compound I at 373 and 391 nm decreased, and a new peak appears with a maximum at 435 nm (FIG. 1E). An overlay of the absorption spectra in complex with dsDNA at different bp per dye ratios gives a single isosbestic point at 398 nm. Free compound I fluoresces around 438 nm (the exact position of the peak depends on the excitation wavelength). […] At the same time, a new peak evolves with a maximum around 484 nm (FIG. 1F). The exact maximum of fluorescence of compound I/DNA complexes varies insignificantly as a function of the dye/bp ratio and/or base pairs composition of the nucleic acids. […] The quantum yield for compound I (excited at 435 nm) at 5 μM in 50 mM Na-phosphate, pH 7.2, was determined to be 2.7% for free dye and 13.8% in admixture with 50 μM CT DNA.
(§4) To get a further insight into how the structural properties of compound I contribute to its binding to DNA, the inventors analysed fourteen structural analogues present in the compound library. Although several of these compounds are fluorescent in vivo, this property went undetected in the initial screen most likely due to the latency period before the appearance of the signal (see below). To evaluate the activity of compound I-like molecules three tests were used: (1) in vivo, the inventors incubated human fibroblasts in the presence of the molecules and scored nuclear fluorescence in the microscope; (2 and 3) in vitro, the inventors looked at the absorption and fluorescence of free molecules before and after addition of plasmid DNA. […] With the exception of compound I and analogues 8 and 12, accurate in vitro measurement of the fluorescence intensities was impossible because the emission peaks for the free molecules were too close to that for the DNA-bound dye. This affected the height of the dye/DNA peaks.

plasmid DNA [2] = assay: fluorescence of free molecules before and after addition of plasmid DNA; format: physicochemical; design: Fluorescence maxima free dye / Fluorescence maxima DNA bound dye: unit not given beside the values; conditions: for Fluorescence maxima free dye: free molecule, before addition of plasmid DNA; for Fluorescence maxima DNA bound dye: after addition of plasmid DNA
Experimental: as §1, §2, §3, §4

human fibroblasts = assay: in vivo nuclear fluorescence of human fibroblasts incubated with the molecules, scored in the microscope; format: cell-based; design: key: Weak: Staining was defined as “weak”, “moderate” or “strong” based on the nuclear signal/background ratio.; Moderate: Staining was defined as “weak”, “moderate” or “strong” based on the nuclear signal/background ratio.; Strong: Staining was defined as “weak”, “moderate” or “strong” based on the nuclear signal/background ratio; conditions: 10 μM, 10-60 min (up to 24 hours); Alexa488/FITC filter
Experimental: In this study, three different types of cells were used: Xenopus epithelial cell line XL177 (Miller, L. et al., 1977, In Vitro, 13, 557-563) stably transformed with a YFP-α-tubulin expressing construct (pEYFP-Tub, Clontech), mouse fibroblasts, and primary human skin fibroblasts. XL177 cells were grown at 20° C. in 60% Leibowitz-15 medium, supplemented with antibiotics, 10% fetal calf serum (FCS) and 10 mM HEPES, pH 7.2 with addition of 0.7 mg/ml G418. Cells were plated into glass-bottom 96-well plates (Greiner, Germany) and left to spread for 24 hours before being incubated in the presence of the test compounds from the Curie-CNRS small molecule library (at 25 or 50 μM final concentration) for another 20-24 hours. Mouse and human fibroblasts were grown in DMEM with antibiotics and 10% FCS at 37° C. in the presence of 5% CO2. The cells were observed using a Zeiss Axiovert 200M microscope with a 40× oil immersion objective and a standard Alexa488/FITC filter (Omega, XF100-2; Ex475AF40/Em535AF45/Dichroic505). Subsequent experiments were carried out using smaller concentrations of compound I and incubation times as described in the text and figures legends. For the in vivo tests of compound I-like compounds, the molecules were added to cell culture medium at 10 μM final concentration and incubated with cells 10-60 min (up to 24 hours) prior to scoring.
as §4

Structure (SMILES) | melting point [°C] | Absorption maxima DNA bound dye (plasmid DNA [1]) | Absorption maxima free dye (plasmid DNA [1]) | Fluorescence maxima free dye (plasmid DNA [2]) | Fluorescence maxima DNA bound dye (plasmid DNA [2]) | Images of the in vivo nuclear staining (human fibroblasts)
Cc1nc2c3ccccc3cnc2c2ccccc12 [Compound 1, 6-Methyl-dibenzo[c,h][1,5]naphthyridine] | 153 |  |  |  |  | 
CCN(CC)CCCNCc1nc2c3ccccc3cnc2c2ccccc12 [Compound 2, N′-Dibenzo[c,h][1,5]naphthyridin-6-ylmethyl-N,N-diethyl-propane-1,3-diamine] |  | 365 | 360 |  |  | 
OCCNCCNc1nc2c3ccccc3cnc2c2ccccc12 [Compound 3, 2-[2-(Dibenzo[c,h][1,5]naphthyridin-6-ylamino)-ethylamino]-ethanol] | 100 | 375/375 | 375/375 |  |  | 
CN(C)CCNc1nc2c3ccccc3cnc2c2ccccc12 [Compound 4, N′-Dibenzo[c,h][1,5]naphthyridin-6-yl-N,N-dimethyl-ethane-1,3-diamine] |  | 375 | 370 | 404/ND |  | 
CN(C)CCNCc1nc2c3ccccc3cnc2c2ccccc12 [Compound 5, N′-dibenzo[c,h][1,5]naphthyridin-6-yl-methyl-N,N-dimethyl-ethane-1,2-diamine] | 160 |  |  |  |  | 
CN(C)CCCNCc1nc2c3ccccc3cnc2c2ccccc12 [Compound 6, N′-dibenzo[c,h][1,5]naphthyridin-6-yl-methyl-N,N-dimethyl-propane-1,3-diamine] | 45 |  |  |  |  | 
CC(CO)(CO)NCc1nc2c3ccccc3cnc2c2ccccc12 [Compound 7, N′-dibenzo[c,h][1,5]naphthyridin-6-yl-methylamino-2-methyl-propane-1,3-diol] | 156 |  | 365/ND |  |  | 
COc1ccc2c(c1)c(C)nc1c3ccccc3c(NCCCN(C)C)nc21 [Compound 8, N′-(2-methoxy-12-methyl-dibenzo[c,h][1,5]naphthyridin-6-yl)-N,N-dimethyl-propane-1,3-diamine] | 139 | 425 | 385 | 427 | 468 | 
COc1ccc2c(c1)c(NCCN(C)C)nc1c3ccccc3c(NCCN(C)C)nc21 [Compound 9, N6,N12-bis-(2-dimethylamino-ethyl)-2-methoxy-dibenzo[c,h][1,5]naphthyridin-6,12-diamine] | 169 | 395 | 375 | 468 | 472 | Weak
COc1ccc2c(c1)c(NCCCN(C)C)nc1c3ccccc3c(NCCCN(C)C)nc21 [Compound 10, N6,N12-bis-(3-dimethylamino-propyl)-2-methoxy-dibenzo[c,h][1,5]naphthyridine-6,12-diamine] | 155 | 402 | 380 | 478 | 485 | Moderate/ Strong
COc1ccc2c(c1)c(NCCCN(C)C)nc1c3ccc(OC)cc3c(NCCCN(C)C)nc21 [Compound 11, N,N′-bis-(3-dimethylaminopropyl)-2,8-dimethoxy-dibenzo[c,h][1,5]naphthyridin-6,12-diamine] | 216 | 405 | 390 | 484 | 500 | Moderate/ Strong
COc1ccc2c(c1)c(C)nc1c3ccc(OC)cc3c(NCCN(C)C)nc21 [Compound 12, N′-(2,8-dimethoxy-12-methyl-dibenzo[c,h][1,5]naphthyridin-6-yl)-N,N-dimethyl-ethane-1,3-diamine] |  | 435 | 390 | 435 | 475 | Weak
COc1ccc2c(cnc3c4ccc(OC)cc4c(NCCN(C)C)nc23)c1 [Compound 13, N′-(2,8-dimethoxy-dibenzo[c,h][1,5]naphthyridin-6-yl)-N,N-dimethyl-ethane-1,3-diamine] |  | 394 | 390 | 425 | 407 | Moderate^§
COc1ccc2c(c1)c(NCCN(C)C)nc1c3ccc(OC)cc3c(NCCN(C)C)nc21 [Compound 14, N,N′-bis-(3-dimethylamino-ethyl)-2,8-dimethoxy-dibenzo[c,h][1,5]naphthyridin-6,12-diamine] | 209 | 400/400 | 400/400 | 468 | 482 | Weak
